Measurements as given in patent US20260048062A1, “FUSED AMINO PYRIMIDINE COMPOUNDS FOR TREATMENT OF PSYCHOSIS AND PSYCHOTIC DISORDERS” (Ovid Therapeutics Inc., priority 2024, published 2026).

Columns and labels:
[1] = system: acute brain slices; experiment: Late recurrent discharges in acute brain slices exposed to 0-Mg
[2] = target: T1, NKCC1 (Homo sapiens, UniProt P55011); experiment: Tl+ flux assay, HEK-293 cells expressing NKCC1; assay type: cell-based; conditions: read-out: concentration at which effects on NKCC1 were seen
T1 construct: expressed in transfected cells; host or cells: HEK-293
T1 sequence (P55011 1-1212): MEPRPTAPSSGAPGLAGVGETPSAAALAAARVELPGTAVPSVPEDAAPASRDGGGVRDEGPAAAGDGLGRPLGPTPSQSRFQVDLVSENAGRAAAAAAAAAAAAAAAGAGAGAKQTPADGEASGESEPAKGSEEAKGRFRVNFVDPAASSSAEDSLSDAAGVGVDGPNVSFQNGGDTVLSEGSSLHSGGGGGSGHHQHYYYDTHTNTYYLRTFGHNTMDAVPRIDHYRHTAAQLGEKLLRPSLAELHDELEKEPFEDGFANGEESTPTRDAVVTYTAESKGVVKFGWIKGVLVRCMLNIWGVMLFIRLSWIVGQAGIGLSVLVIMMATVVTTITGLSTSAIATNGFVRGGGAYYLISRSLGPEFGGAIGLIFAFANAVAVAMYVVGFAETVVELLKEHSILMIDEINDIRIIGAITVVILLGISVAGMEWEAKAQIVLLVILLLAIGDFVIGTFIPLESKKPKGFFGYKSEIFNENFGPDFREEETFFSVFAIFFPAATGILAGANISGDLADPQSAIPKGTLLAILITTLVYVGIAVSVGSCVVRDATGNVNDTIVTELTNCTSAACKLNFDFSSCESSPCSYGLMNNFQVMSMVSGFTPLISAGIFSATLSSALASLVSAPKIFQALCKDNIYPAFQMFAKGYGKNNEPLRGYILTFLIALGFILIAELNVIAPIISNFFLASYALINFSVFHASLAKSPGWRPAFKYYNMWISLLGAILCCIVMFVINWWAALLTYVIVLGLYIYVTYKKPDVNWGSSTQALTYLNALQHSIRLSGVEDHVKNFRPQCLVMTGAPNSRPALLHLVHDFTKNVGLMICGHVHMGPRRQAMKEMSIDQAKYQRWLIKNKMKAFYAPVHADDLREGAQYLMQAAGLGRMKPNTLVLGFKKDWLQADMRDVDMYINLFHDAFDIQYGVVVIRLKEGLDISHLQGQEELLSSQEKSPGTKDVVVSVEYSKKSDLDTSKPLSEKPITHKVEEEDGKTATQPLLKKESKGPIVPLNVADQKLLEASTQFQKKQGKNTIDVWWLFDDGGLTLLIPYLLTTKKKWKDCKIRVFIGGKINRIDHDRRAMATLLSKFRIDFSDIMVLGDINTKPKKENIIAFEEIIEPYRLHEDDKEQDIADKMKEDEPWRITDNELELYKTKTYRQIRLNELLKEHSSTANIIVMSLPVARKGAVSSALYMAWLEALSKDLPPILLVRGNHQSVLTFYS
Experimental: FLIPR TI Flux assay. HEK-293 cells were washed with HBSS, and then incubated with loading buffer containing TI sensitive fluorescent dye (https://www.moleculardevices.com), 20 μM bumetanide 20 μM ouabain and 2.5 mM probenecid for 1 h at room temperature (RT) under control conditions or with drugs in the dark using a FlexStation 3 microplate reader (Molecular Devices) and imaged […] for 30 min. Stimulus buffer was added containing 5 mM K^+/0.5 mM Tl^+ and cells were imaged every 1.5 over a 190 second time course The initial rate Tl^+ uptake (Relative Fluorescence Units (RFU) per second) was determined following addition of the stimulus buffer as outlined previously (Conway et al., 2017, supra) (Lee et al., 2022, supra).
Compared to KCC2, effects on KCC3, KCC4, and NKCC1 were only seen at concentrations more than 35-fold that of KCC2 (>100 μM) (FIG. 1G).

[3] = system: hippocampus; experiment: Neuronal cell death in the hippocampus, Compound A with diazepam; assay type: in vivo; conditions: mice, Compound A and diazepam vs diazepam alone
[4] = PK study, brain and plasma levels by LC-MS/MS; assay type: in vivo; conditions: mice

C[C@@H]1CN(c2nc3c(c(Nc4ccc(C5CCCCC5)cc4)n2)COC3)CCO1 [Compound A, (R)—N-(4-cyclohexylphenyl)-2-(2-methylmorpholino)-5,7-dihydrofuro[3,4-d]pyrimidin-4-amine]
development of late recurrent discharges (LRDs) [1]: reduced
EC50 [2]: > 100 µM
neuronal cell death in the hippocampus [3]: significantly reduced
time at which accumulation in the brain was detected ([4]; 50 mg/kg SC): 30 min
time by which accumulation in the brain was evident ([4]; single 25 mg/kg IV bolus): ≤ 30 min
